Results as given in US20240082282A1 (priority 2020, published 2024).
≈ marks a conversion by molar mass, not a printed value.

Assays:
[1] = test system: Fusobacterium nucleatum KLE 2428; assay type: cell-based; details: KLE2428; Fusobacterium nucleatum KLE 2428, anaerobic, stool isolate; read-out: Minimum inhibitory concentration (MIC)
[2] = test system: Clostridium tertium KLE 2303; assay type: cell-based; details: KLE2303; Clostridium tertium KLE 2303, anaerobic, stool isolate; read-out: Minimum inhibitory concentration (MIC)
[3] = test system: Clostridium perfringens KLE 2326; assay: microbe, parasite or virus in culture; assay type: cell-based; details: Clostridium perfringens, KLE2326, read-out: Minimum inhibitory concentration (MIC)
[4] = test system: Staphylococcus epidermidis KLE 2378; assay type: cell-based; details: KLE2378; Staphylococcus epidermidis KLE 2378, anaerobic, stool isolate; read-out: Minimum inhibitory concentration (MIC)
[5] = test system: Shigella sonnei ATCC 25931; assay type: cell-based; details: ATCC25931; Shigella sonnei ATCC 25931, anaerobic; read-out: Minimum inhibitory concentration (MIC)
Escherichia coli MG1655 = assay type: cell-based; details: read-out: Minimum inhibitory concentration (MIC)
[6] = test system: Pseudomonas aeruginosa PAO1; assay type: cell-based; details: Pseudomonas aeruginosa PAO1; read-out: Minimum inhibitory concentration (MIC)
[7] = test system: Salmonella typhimurium LT2 ATCC 19585; assay type: cell-based; details: Salmonella enterica; Salmonella typhimurium LT2 ATCC 19585, anaerobic; read-out: Minimum inhibitory concentration (MIC)
[8] = test system: Streptococcus salivarius KLE 2370; assay type: cell-based; details: KLE2370; Streptococcus salivarius KLE 2370, anaerobic, stool isolate; read-out: Minimum inhibitory concentration (MIC)
[9] = test system: Streptococcus parasanguinis KLE 2375; assay type: cell-based; details: KLE2375; Streptococcus parasanguinis KLE 2375, anaerobic, stool isolate; read-out: Minimum inhibitory concentration (MIC)
[10] = test system: Bifidobacterium longum ATCC BAA-999; assay type: cell-based; details: ATCCBAA999; Bifidobacterium longum ATCC BAA-999, anaerobic; read-out: Minimum inhibitory concentration (MIC)
[11] = test system: Bacteroides nordii KLE 2369; assay type: cell-based; details: KLE2369; Bacteroides nordii KLE 2369, anaerobic, stool isolate; read-out: Minimum inhibitory concentration (MIC)
[12] = test system: Bacteroides cellulosilyticus KLE 2342; assay type: cell-based; details: KLE2342; Bacteroides cellulosilyticus KLE 2342, anaerobic, stool isolate; read-out: Minimum inhibitory concentration (MIC)
[13] = test system: Streptococcus sanguinis KLE 2374; assay type: cell-based; details: KLE2374; Streptococcus sanguinis KLE 2374, anaerobic, stool isolate; read-out: Minimum inhibitory concentration (MIC)
[14] = test system: Lactobacillus reuteri ATCC 23272; assay type: cell-based; details: Limosilactobacillus reuteri, ATCC23272; Lactobacillus reuteri ATCC 23272, anaerobic; read-out: Minimum inhibitory concentration (MIC)
[15] = test system: Bacteroides fragilis ATCC 25285; assay type: cell-based; details: ATCC25285; Bacteroides fragilis ATCC 25285, anaerobic; read-out: Minimum inhibitory concentration (MIC)
[16] = test system: Blautia producta ATCC 27340; assay type: cell-based; details: ATCC27340; Blautia producta ATCC 27340, anaerobic; read-out: Minimum inhibitory concentration (MIC)
[17] = test system: Bacteroides vulgatus KLE 2381; assay type: cell-based; details: Phocaeicola vulgatus, KLE2381; Bacteroides vulgatus KLE 2381, anaerobic, stool isolate; read-out: Minimum inhibitory concentration (MIC)
[18] = test system: Bacteroides eggerthii KLE 2382; assay type: cell-based; details: KLE2382; Bacteroides eggerthii KLE 2382, anaerobic, stool isolate; read-out: Minimum inhibitory concentration (MIC)
[19] = test system: Enterococcus faecalis KLE 2341; assay type: cell-based; details: KLE2341; Enterococcus faecalis KLE 2341, anaerobic, stool isolate; read-out: Minimum inhibitory concentration (MIC)
[20] = test system: Enterobacter cloacae ATCC 13047; assay type: cell-based; details: ATCC13047; Enterobacter cloacae ATCC 13047, anaerobic; read-out: Minimum inhibitory concentration (MIC)
[21] = test system: Bacteroides xylanisolvens KLE 2305; assay type: cell-based; details: KLE2305; Bacteroides xylanisolvens KLE 2305, anaerobic, stool isolate; read-out: Minimum inhibitory concentration (MIC)
[22] = test system: Leptospira biflexa ATCC 23582; details: Leptospira biflexa, ATCC23582, read-out: Minimum inhibitory concentration (MIC)
[23] = test system: Borrelia burgdorferi BbP1286; assay: microbe, parasite or virus in culture; details: Borreliella burgdorferi, BBP1286, read-out: Minimum inhibitory concentration (MIC)
[24] = test system: Borreliella burgdorferi 297; details: Borreliella burgdorferi, 297, read-out: Minimum inhibitory concentration (MIC)
[25] = test system: Borreliella burgdorferi B31; details: Borreliella burgdorferi, B31, read-out: Minimum inhibitory concentration (MIC)
[26] = test system: Borreliella burgdorferi N40; details: Borreliella burgdorferi, N40, read-out: Minimum inhibitory concentration (MIC)
Borrelia afzelii = details: Borreliella afzelii, read-out: Minimum inhibitory concentration (MIC)
Borrelia bavariensis = details: Borreliella bavariensis, read-out: Minimum inhibitory concentration (MIC)
Borrelia garinii = details: Borreliella garinii, read-out: Minimum inhibitory concentration (MIC)
Borreliella miyamotoi = details: Borreliella, read-out: Minimum inhibitory concentration (MIC)
[27] = test system: Borrelia turcica DSM 16138; details: Borrelia turcica, DSM16138, read-out: Minimum inhibitory concentration (MIC)
[28] = test system: Brevinema andersonii ATCC 43811; details: Brevinema andersonii, ATCC43811, read-out: Minimum inhibitory concentration (MIC)
B. burgdorferi N40 = assay: Mouse infection model (IP injection, oral gavage); details: for Culture positive (%): C3H, 5 days, whole ear culture
[29] = 156 mg/kg, IP injection, twice a day for 5 days

Structure (SMILES) | MIC [1] [µg/mL] | MIC [2] [µg/mL] | MIC [3] [µg/mL] | MIC [4] [µg/mL] | MIC [5] [µg/mL] | MIC (Escherichia coli MG1655) [µg/mL] | MIC [6] [µg/mL] | MIC [7] [µg/mL] | MIC [8] [µg/mL] | MIC [9] [µg/mL] | MIC [10] [µg/mL] | MIC [11] [µg/mL] | MIC [12] [µg/mL] | MIC [13] [µg/mL] | MIC [14] [µg/mL] | MIC [15] [µg/mL] | MIC [16] [µg/mL] | MIC [17] [µg/mL] | MIC [19] [µg/mL] | MIC [20] [µg/mL] | other results
CC1(C)S[C@@H]2[C@H](NC(=O)[C@H](N)c3ccc(O)cc3)C(=O)N2[C@H]1C(=O)O [Amoxicillin] | 2 (≈ 5.47 µM) | 32 (≈ 87.6 µM) | 0.12 (≈ 0.328 µM) | > 128 | 2 (≈ 5.47 µM) | 16 (≈ 43.8 µM) | > 128 | 16 (≈ 43.8 µM) | 0.06 (≈ 0.164 µM) | 64 (≈ 175 µM) | 1 (≈ 2.74 µM) | 32 (≈ 87.6 µM) | 128 (≈ 350 µM) | 2 (≈ 5.47 µM) | 4 (≈ 10.9 µM) | 16 (≈ 43.8 µM) | 1 (≈ 2.74 µM) | 128 (≈ 350 µM) | 0.5 (≈ 1.37 µM) | > 128 | MIC [18]: 0.5 µg/mL (≈ 1.37 µM); MIC [21]: 32 µg/mL (≈ 87.6 µM); MIC [22]: 8 µg/mL (≈ 21.9 µM); MIC [23]: 0.12 µg/mL (≈ 0.328 µM); MIC [24]: 0.25 µg/mL (≈ 0.684 µM); MIC [25]: 0.25 µg/mL (≈ 0.684 µM); MIC [26]: 0.12 µg/mL (≈ 0.328 µM); MIC (Borrelia afzelii): 0.01 µg/mL (≈ 0.0274 µM); MIC (Borrelia bavariensis): 0.06 µg/mL (≈ 0.164 µM); MIC (Borrelia garinii): 0.12 µg/mL (≈ 0.328 µM); MIC (Borreliella miyamotoi): 0.12 µg/mL (≈ 0.328 µM); MIC [27]: 0.25 µg/mL (≈ 0.684 µM); MIC [28]: 0.12 µg/mL (≈ 0.328 µM); Culture positive (%) (B. burgdorferi N40; oral gavage, daily dose 200 mg/kg/day): 0%
C[C@H]1c2cccc(O)c2C(=O)C2=C(O)[C@]3(O)C(=O)C(C(N)=O)=C(O)[C@@H](N(C)C)[C@@H]3[C@@H](O)[C@@H]21 [Doxycycline] | 0.12 (≈ 0.27 µM) | 0.03 (≈ 0.0675 µM) | 0.25 (≈ 0.563 µM) | 0.5 (≈ 1.13 µM) | 4 (≈ 9 µM) | 2 (≈ 4.5 µM) | 32 (≈ 72 µM) | 8 (≈ 18 µM) | 0.12 (≈ 0.27 µM) | 4 (≈ 9 µM) | 0.25 (≈ 0.563 µM) | 0.25 (≈ 0.563 µM) | 2 (≈ 4.5 µM) | 0.25 (≈ 0.563 µM) | 8 (≈ 18 µM) | 0.5 (≈ 1.13 µM) | 2 (≈ 4.5 µM) | 1 (≈ 2.25 µM) | 0.5 (≈ 1.13 µM) | 8 (≈ 18 µM) | MIC [18]: 0.01 µg/mL (≈ 0.0225 µM); MIC [21]: 0.5 µg/mL (≈ 1.13 µM); MIC [22]: 2 µg/mL (≈ 4.5 µM); MIC [23]: 0.25 µg/mL (≈ 0.563 µM); MIC [24]: 0.25 µg/mL (≈ 0.563 µM); MIC [25]: 0.25 µg/mL (≈ 0.563 µM); MIC [26]: 0.25 µg/mL (≈ 0.563 µM); MIC (Borrelia afzelii): 0.12 µg/mL (≈ 0.27 µM); MIC (Borrelia bavariensis): 0.12 µg/mL (≈ 0.27 µM); MIC (Borrelia garinii): 0.12 µg/mL (≈ 0.27 µM); MIC (Borreliella miyamotoi): 0.12 µg/mL (≈ 0.27 µM); MIC [27]: 0.25 µg/mL (≈ 0.563 µM); MIC [28]: 0.12 µg/mL (≈ 0.27 µM); Culture positive (%) (B. burgdorferi N40; oral gavage, daily dose 100 mg/kg/day): 0%
CO/N=C(\C(=O)N[C@@H]1C(=O)N2C(C(=O)O)=C(CSc3nc(=O)c(=O)[nH]n3C)CS[C@H]12)c1csc(N)n1 [Ceftriaxone] | 0.5 (≈ 0.902 µM) | 1 (≈ 1.8 µM) | < 0.01 | 1 (≈ 1.8 µM) | 0.25 (≈ 0.451 µM) | 0.06 (≈ 0.108 µM) | 64 (≈ 115 µM) | 0.25 (≈ 0.451 µM) | 0.03 (≈ 0.0541 µM) | 0.06 (≈ 0.108 µM) | 4 (≈ 7.21 µM) | 1 (≈ 1.8 µM) | 128 (≈ 231 µM) | 0.12 (≈ 0.216 µM) | 32 (≈ 57.7 µM) | 2 (≈ 3.61 µM) | 0.5 (≈ 0.902 µM) | 128 (≈ 231 µM) | > 128 | 64 (≈ 115 µM) | MIC [21]: 64 µg/mL (≈ 115 µM); MIC [22]: 2 µg/mL (≈ 3.61 µM); MIC [23]: 0.01 µg/mL (≈ 0.018 µM); MIC [24]: 0.01 µg/mL (≈ 0.018 µM); MIC [25]: 0.01 µg/mL (≈ 0.018 µM); MIC [26]: 0.01 µg/mL (≈ 0.018 µM); MIC (Borrelia afzelii): < 0.01 µg/mL; MIC (Borrelia bavariensis): 0.01 µg/mL (≈ 0.018 µM); MIC (Borrelia garinii): 0.01 µg/mL (≈ 0.018 µM); MIC (Borreliella miyamotoi): 0.01 µg/mL (≈ 0.018 µM); MIC [27]: 0.06 µg/mL (≈ 0.108 µM); MIC [28]: 0.01 µg/mL (≈ 0.018 µM); B. burgdorferi culture (% positive) (B. burgdorferi N40; [29]): 0%; Mean # of B. burgdorferi/10 mg of skin tissue (qPCR) (B. burgdorferi N40; [29]): <1 B. burgdorferi/10 mg of skin t; Culture positive (%) (B. burgdorferi N40; intraperitoneal injection, daily dose 312 mg/kg/day): 0%
